# According to ChEMBL document CHEMBL6092168, “Identification of novel indolinone derivatives as CTSC inhibitors to treat inflammatory bowel disease by modulating inflammatory factors” (Eur J Med Chem, 2024):
# Calls of active or inactive are those of the source. No cut-off for these calls is given here.
# Columns and labels:
# [1] = Apparent permeability in human Caco-2 cells incubated for 90 min by LC-MS/MS analysis; type: ADME, cell-based
# Mus musculus [2] = experiment: Anti-inflammatory activity in DSS-induced ulcerative colitis male C57BL/6 mouse model assessed as reduction in Cathepsin G level in colon at 60 mg/kg administered via gavage for 10 days relative to control; type: functional; set-up: scale not given: the % may be the effect or the level left; conditions: time 10 day
# Mus musculus [3] = experiment: Anti-inflammatory activity in DSS-induced ulcerative colitis male C57BL/6 mouse model assessed as reduction in inflammatory cell infiltration in colon at 60 mg/kg administered via gavage for 10 days by H and E staining based analysis; type: functional, organism-based; conditions: time 10.0 day
# Dipeptidyl peptidase 1 = Dipeptidyl peptidase 1 (Homo sapiens, UniProt P53634); experiment: Inhibition of Cathepsin C in human U-937 cells using H-Gly-Arg-AMC as substrate at 10 uM incubated for 5 days by fluorescence based microplate reader analysis relative to control; type: cell-based; conditions: time 5.0 day
# [4] = biological target: T1, Dipeptidyl peptidase 1 (Mus musculus) (UniProt P97821); experiment: In vivo inhibition of Cathepsin C in C57BL/6 mouse assessed as reduction in cathepsin C activity in bone marrow at 15 mg/kg, po administered once daily for 6 days by fluorescence based microplate reader relative to control; type: functional, organism-based; conditions: time 6.0 day
# T1 sequence (whole entry): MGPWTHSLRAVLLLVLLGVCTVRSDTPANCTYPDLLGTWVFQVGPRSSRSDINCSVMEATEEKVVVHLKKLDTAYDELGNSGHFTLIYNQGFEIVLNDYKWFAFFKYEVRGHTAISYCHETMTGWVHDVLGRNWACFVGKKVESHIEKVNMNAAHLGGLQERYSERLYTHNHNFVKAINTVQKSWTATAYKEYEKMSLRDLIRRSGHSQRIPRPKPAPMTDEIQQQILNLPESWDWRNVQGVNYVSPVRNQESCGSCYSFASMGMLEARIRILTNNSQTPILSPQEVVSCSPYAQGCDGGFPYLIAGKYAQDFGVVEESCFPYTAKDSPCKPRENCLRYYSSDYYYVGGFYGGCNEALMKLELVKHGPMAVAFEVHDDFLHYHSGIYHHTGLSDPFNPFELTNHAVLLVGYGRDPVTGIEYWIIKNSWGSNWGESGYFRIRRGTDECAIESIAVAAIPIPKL
# [5] = Tmax in male Sprague-Dawley rat at 10 mg/kg, po measured at 5 to 1440 mins by LC-MS/MS analysis; type: ADME, organism-based; conditions: in vivo, time 5-1440 min
# [6] = biological target: T2, Cathepsin G (Mus musculus) (UniProt P28293); experiment: In vivo inhibition of Cathepsin G in C57BL/6 mouse assessed as reduction in cathepsin G activity in blood at 30 mg/kg, po administered once daily for 6 days by fluorescence based microplate reader relative to control; type: functional, organism-based; conditions: time 6.0 day
# T2 sequence (whole entry): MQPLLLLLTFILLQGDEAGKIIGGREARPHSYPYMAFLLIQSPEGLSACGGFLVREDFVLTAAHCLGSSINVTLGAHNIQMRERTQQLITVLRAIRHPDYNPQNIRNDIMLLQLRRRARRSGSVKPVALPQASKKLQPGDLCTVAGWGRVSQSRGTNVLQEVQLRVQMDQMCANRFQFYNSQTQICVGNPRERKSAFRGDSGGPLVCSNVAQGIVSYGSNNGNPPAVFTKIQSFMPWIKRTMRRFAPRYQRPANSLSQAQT
# Mus musculus [7] = experiment: Anti-inflammatory activity in DSS-induced ulcerative colitis male C57BL/6 mouse model assessed as reduction in neutrophil elastase level in serum at 60 mg/kg administered via gavage for 10 days relative to control; type: functional; set-up: scale not given: the % may be the effect or the level left; conditions: time 10 day
# [8] = biological target: T1, Dipeptidyl peptidase 1 (Mus musculus); experiment: In vivo inhibition of Cathepsin C in C57BL/6 mouse assessed as reduction in cathepsin C activity in blood at 15 mg/kg, po administered once daily for 6 days by fluorescence based microplate reader relative to control; type: functional, organism-based; conditions: time 6.0 day
# Mus musculus [9] = experiment: Anti-inflammatory activity in DSS-induced ulcerative colitis male C57BL/6 mouse model assessed as reduction in proteinase 3 level in serum at 15 to 30 mg/kg administered via gavage for 10 days; type: functional, organism-based; conditions: dose 15-30 mg/kg, time 10.0 day
# Mus musculus [10] = experiment: Anti-inflammatory activity in DSS-induced ulcerative colitis male C57BL/6 mouse model assessed as reduction in inflammatory epithelial destruction in colon at 60 mg/kg administered via gavage for 10 days by H and E staining based analysis; type: functional, organism-based; conditions: time 10.0 day
# [11] = biological target: T3, Myeloblastin (Mus musculus) (UniProt Q61096); experiment: In vivo inhibition of proteinase 3 in C57BL/6 mouse assessed as reduction in proteinase 3 activity in bone marrow at 30 mg/kg, po administered once daily for 6 days by fluorescence based microplate reader relative to control; type: functional, organism-based; conditions: time 6.0 day
# T3 sequence (whole entry): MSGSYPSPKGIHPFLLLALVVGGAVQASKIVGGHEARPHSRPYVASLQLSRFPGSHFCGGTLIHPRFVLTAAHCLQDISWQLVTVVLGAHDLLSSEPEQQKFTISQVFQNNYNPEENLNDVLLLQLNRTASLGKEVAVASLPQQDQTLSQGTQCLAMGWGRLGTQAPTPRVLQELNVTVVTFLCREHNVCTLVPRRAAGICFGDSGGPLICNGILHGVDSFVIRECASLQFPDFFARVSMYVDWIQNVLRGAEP
# [12] = biological target: T2, Cathepsin G (Mus musculus); experiment: In vivo inhibition of Cathepsin G in C57BL/6 mouse assessed as reduction in cathepsin G activity in blood administered orally once daily for 6 days by fluorescence based microplate reader; type: functional, organism-based; conditions: dose 5-30 mg/kg, route po, time 6.0 day
# [13] = biological target: T4, Neutrophil elastase (Mus musculus) (UniProt Q3UP87); experiment: In vivo inhibition of neutrophil elastase in C57BL/6 mouse assessed as reduction in neutrophil elastase activity in blood administered orally once daily for 6 days by fluorescence based microplate reader; type: functional, organism-based; conditions: dose 5-30 mg/kg, route po, time 6.0 day
# T4 sequence (whole entry): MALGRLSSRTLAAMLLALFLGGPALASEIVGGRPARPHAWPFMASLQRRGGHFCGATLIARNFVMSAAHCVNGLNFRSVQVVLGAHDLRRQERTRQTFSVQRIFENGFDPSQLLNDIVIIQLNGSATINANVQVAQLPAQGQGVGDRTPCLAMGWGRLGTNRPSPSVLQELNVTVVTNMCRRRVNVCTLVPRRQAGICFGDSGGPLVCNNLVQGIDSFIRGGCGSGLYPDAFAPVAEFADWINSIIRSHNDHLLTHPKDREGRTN
# [14] = biological target: T1, Dipeptidyl peptidase 1 (Mus musculus); experiment: In vivo inhibition of Cathepsin C in C57BL/6 mouse assessed as reduction in cathepsin C activity in bone marrow administered orally once daily for 6 days by fluorescence based microplate reader; type: functional, organism-based; conditions: dose 5-30 mg/kg, route po, time 6.0 day
# Mus musculus [15] = experiment: Anti-inflammatory activity in DSS-induced ulcerative colitis male C57BL/6 mouse model assessed as reduction in GM-CSF expression in colon administered via gavage for 10 days by ELISA; type: functional, organism-based; conditions: dose 15-60 mg/kg, time 10.0 day
# [16] = Acute toxicity in ICR mouse assessed as change in white blood cell count in bone marrow at 1500 mg/kg, po administered daily for 7 days; type: organism-based; conditions: in vivo, 168 h, time 7 day
# [17] = Cmax in male Sprague-Dawley rat at 10 mg/kg, po measured at 5 to 1440 mins by LC-MS/MS analysis; type: ADME, organism-based; conditions: in vivo, time 5-1440 min
# Mus musculus [18] = experiment: Anti-inflammatory activity in DSS-induced ulcerative colitis male C57BL/6 mouse model assessed as reduction in IL-1 beta expression in serum administered via gavage for 10 days by ELISA; type: functional, organism-based; conditions: dose 15-60 mg/kg, time 10.0 day
# Dipeptidyl peptidase 1, sequence (P53634 25-134 limits assumed): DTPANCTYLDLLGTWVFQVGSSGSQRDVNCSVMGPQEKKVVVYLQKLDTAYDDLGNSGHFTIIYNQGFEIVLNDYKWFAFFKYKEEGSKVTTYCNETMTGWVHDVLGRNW
# Dipeptidyl peptidase 1, sequence (P53634 231-394 limits assumed): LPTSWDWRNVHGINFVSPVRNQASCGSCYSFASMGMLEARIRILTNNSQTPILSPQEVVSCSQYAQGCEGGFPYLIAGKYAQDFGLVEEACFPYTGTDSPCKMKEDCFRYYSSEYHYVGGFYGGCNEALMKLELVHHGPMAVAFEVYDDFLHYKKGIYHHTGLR
# Dipeptidyl peptidase 1, sequence (P53634 395-463 limits assumed): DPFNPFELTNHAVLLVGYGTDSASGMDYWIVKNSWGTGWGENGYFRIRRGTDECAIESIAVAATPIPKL
smiles,measurement,setting,value
O=C1Nc2c(cccc2-c2ccc(NC3CCOCC3)cc2)/C1=C/c1ccnc2ccccc12,Papp at 1.5 h,[1],3.2 ×10⁻⁶ cm/s
same,Activity,Mus musculus [2],51%
same,Activity,Mus musculus [3],Active
same,inhibition,Dipeptidyl peptidase 1,14.9%
same,inhibition,[4],< 50%
same,Tmax,[5],39.6 min
same,inhibition,[6],39.5%
same,Activity,Mus musculus [7],52%
same,inhibition,[8],< 50%
same,Activity,Mus musculus [9],inactive
same,Activity,Mus musculus [10],Active
same,inhibition,[11],58.6%
same,inhibition,[12],Dose-dependent-effect
same,inhibition,[13],Dose-dependent-effect
same,inhibition,[14],Dose-dependent-effect
same,Activity,Mus musculus [15],Dose-dependent-effect; Significant Reduction Observed In High Dose Group
same,Activity,[16],Non-toxic
same,Cmax,[17],158 ng/mL
same,Activity,Mus musculus [18],Dose-dependent-effect; Significant Reduction Observed In High Dose Group
